Laboratory results: ChEMBL document CHEMBL5215006, “Antitumor Activity of Piceamycin by Upregulation of N-Myc Downstream-Regulated Gene 1 in Human Colorectal Cancer Cells” (J Nat Prod, 2022)
Active and inactive are the calls of the source. No cut-off for these calls is given here.

Key:
[1] = tested on: HCT-116; assay: Antitumor activity against human HCT-116 cells xenografted Balb/c mouse assessed as decrease in Ki67 protein expression at 3 mg/kg,ip administrated for 18 days by 3 times per week by immunoblotting assay; format: functional, organism-based; details: time 18.0 day
[2] = tested on: SW480; assay: Cell cycle arrest in human SW480 cells assessed as accumulation at Sub-G1 phase at 0.7 uM incubated for 24 hrs by RNaseA/propidium iodide staining based flow cytometry (reference value: 3.2 %); format: functional
[3] = tested on: SW480; assay: Anti-migratory activity against human SW480 cells assessed as downregulation of N-cadherin gene expression at 0.35 to 1.4 uM incubated for 24 hrs by RT-PCR assay; format: functional, cell-based; details: dose 0.35-1.4 µM
[4] = tested on: SW480; assay: Induction of apoptosis in human SW480 cells assessed as early apoptotic cells at 0.7 uM incubated for 48 hrs by Annexin V-FITC/PI staining based flow cytometry analysis (Rvb= 2.07%); format: functional
[5] = tested on: HCT-116; assay: Antitumor activity against human HCT-116 cells xenografted Balb/c mouse assessed as reduction in tumor growth at 1 mg/kg,ip administrated for 18 days by 3 times per week; format: functional; set-up: scale not given: the % may be the effect or the level left; details: time 18 day
[6] = tested on: HCT-116; assay: Cell cycle arrest in human HCT-116 cells assessed as accumulation at G2/M phase at 0.15 uM incubated for 24 hrs by RNaseA/propidium iodide staining based flow cytometry (reference value: 28.41 %); format: functional
[7] = tested on: HCT-116; assay: Downregulation of c-Myc protein expression in human HCT-116 cells at 0.3 uM incubated for 24 hrs by immunoblotting assay; format: functional, cell-based
[8] = tested on: SW480; assay: Anti-migratory activity against human SW480 cells assessed as downregulation of Snail gene expression at 0.35 to 1.4 uM incubated for 24 hrs by RT-PCR assay; format: functional, cell-based; details: dose 0.35-1.4 µM
[9] = tested on: HCT-116; assay: Anti-migratory activity against human HCT-116 cells assessed as downregulation of Snail protein expression at 0.075 to 0.3 uM incubated for 24 hrs by immunoblotting assay; format: functional, cell-based; details: dose 0.075-0.3 µM
[10] = tested on: HCT-116; assay: Cell cycle arrest in human HCT-116 cells assessed as accumulation at S phase at 0.15 uM incubated for 24 hrs by RNaseA/propidium iodide staining based flow cytometry (reference value: 19.94 %); format: functional
[11] = tested on: HCT-116; assay: Induction of apoptosis in human HCT-116 cells assessed as late apoptotic cells at 0.15 uM incubated for 48 hrs by Annexin V-FITC/PI staining based flow cytometry analysis (Rvb= 3.18%); format: functional
[12] = tested on: SW480; assay: Induction of apoptosis in human SW480 cells assessed as upregulation of cleaved PARP expression at 1.4 uM measured at 12 to 48 hrs by immunoblotting assay; format: functional, cell-based; details: time 12-48 hrs, TDE = time-dependent effect
[13] = tested on: SW480; assay: Antitumor activity against human SW480 cells assessed as upregulation of NDRG1 gene expression at 0.35 to 1.4 uM incubated for 24 hrs by RT-PCR method; format: functional, cell-based; details: dose 0.35-1.4 µM, DDE = dose-dependent effect
[14] = tested on: SW480; assay: Induction of apoptosis in human SW480 cells assessed as upregulation of cleaved caspase-8 expression at 1.4 uM measured at 12 to 48 hrs by immunoblotting assay; format: functional, cell-based; details: time 12-48 hrs, TDE = time-dependent effect
[15] = tested on: HCT-116; assay: Antiproliferative activity against human HCT-116 cells assessed as cell growth inhibition incubated for 72 hrs by SRB assay; format: functional, cell-based; details: HCT-116, 72 h
[16] = tested on: HCT-116; assay: Cell cycle arrest in human HCT-116 cells assessed as downregulation of CDK4 protein expression at 0.075 to 0.3 uM incubated for 24 hrs by immunoblotting assay; format: functional, cell-based; details: dose 0.075-0.3 µM
[17] = tested on: HCT-116; assay: Antimigratory activity against highly liver metastatic human HCT-116 cells assessed as downregulation of Snail protein expression at 0.075 to 0.3 uM incubated for 24 hrs by immunoblotting assay; format: functional, cell-based; details: dose 0.075-0.3 µM
[18] = tested on: HCT-116; assay: Antimigratory activity against highly liver metastatic human HCT-116 cells assessed as downregulation of N-cadherin protein expression at 0.075 to 0.3 uM incubated for 24 hrs by immunoblotting assay; format: functional, cell-based; details: dose 0.075-0.3 µM
[19] = tested on: SW480; assay: Induction of apoptosis in human SW480 cells assessed as downregulation of survivin expression at 1.4 uM measured at 12 to 48 hrs by immunoblotting assay; format: functional, cell-based; details: time 12-48 hrs, TDE = time-dependent effect
[20] = tested on: HCT-116; assay: Induction of apoptosis in human HCT-116 cells assessed as early apoptotic cells at 0.3 uM incubated for 48 hrs by Annexin V-FITC/PI staining based flow cytometry analysis (Rvb= 2.51%); format: functional
[21] = tested on: SW480; assay: Cell cycle arrest in human SW480 cells assessed as downregulation of CDK4 protein expression at 0.35 to 1.4 uM incubated for 24 hrs by immunoblotting assay; format: functional, cell-based; details: dose 0.35-1.4 µM
[22] = tested on: HCT-116; assay: Anti-migratory activity against human HCT-116 cells assessed as upregulation of E-cadherin protein expression at 0.075 to 0.3 uM incubated for 24 hrs by immunoblotting assay; format: functional, cell-based; details: dose 0.075-0.3 µM
[23] = tested on: SW480; assay: Antitumor activity against human SW480 cells assessed as decrease in c-Myc expression at 0.35 to 1.4 uM incubated for 24 hrs by immunoblotting assay; format: functional, cell-based; details: dose 0.35-1.4 µM
[24] = tested on: HCT-116; assay: Inhibition of cell migration in human HCT-116 cells at 0.075 to 0.3 uM incubated for 24 hrs by wound-healing assay; format: functional, cell-based; details: dose 0.075-0.3 µM, DDE = dose-dependent effect
[25] = tested on: HCT-116; assay: Cell cycle arrest in human HCT-116 cells assessed as downregulation of cyclin-D1 protein expression at 0.075 to 0.3 uM incubated for 24 hrs by immunoblotting assay; format: functional, cell-based; details: dose 0.075-0.3 µM
[26] = tested on: HCT-116; assay: Antitumor activity against human HCT-116 cells assessed as decrease in c-Myc expression at 0.075 to 0.3 uM incubated for 24 hrs by immunoblotting assay; format: functional, cell-based; details: dose 0.075-0.3 µM
[27] = tested on: HCT-116; assay: Anti-migratory activity against human HCT-116 cells assessed as upregulation of E-cadherin gene expression at 0.075 to 0.3 uM incubated for 24 hrs by RT-PCR assay; format: functional, cell-based; details: dose 0.075-0.3 µM
[28] = tested on: HCT-116; assay: Cell cycle arrest in human HCT-116 cells assessed as accumulation at G0/G1 phase at 0.3 uM incubated upto 48 hrs by RNaseA/propidium iodide staining based flow cytometry; format: functional
[29] = tested on: HCT-116; assay: Antitumor activity against human HCT-116 cells xenografted Balb/c mouse assessed as decrease in Ki67 protein expression at 1 mg/kg,ip administrated for 18 days by 3 times per week by immunoblotting assay; format: functional, organism-based; details: time 18.0 day
[30] = tested on: HCT-116; assay: Anti-migratory activity against human HCT-116 cells assessed as downregulation of Snail gene expression at 0.075 to 0.3 uM incubated for 24 hrs by RT-PCR assay; format: functional, cell-based; details: dose 0.075-0.3 µM
[31] = tested on: HCT-116; assay: Cell cycle arrest in human HCT-116 cells assessed as accumulation at G2/M phase at 0.3 uM incubated for 24 hrs by RNaseA/propidium iodide staining based flow cytometry (reference value: 28.41 %); format: functional
[32] = tested on: SW480; assay: Cell cycle arrest in human SW480 cells assessed as accumulation at G0/G1 phase at 0.35 uM incubated for 24 hrs by RNaseA/propidium iodide staining based flow cytometry (reference value: 54.49 %); format: functional
[33] = tested on: HCT-116; assay: Antimigratory activity against highly liver metastatic human HCT-116 cells assessed as downregulation of N-cadherin gene expression at 0.075 to 0.3 uM incubated for 24 hrs by RT-PCR method; format: functional, cell-based; details: dose 0.075-0.3 µM
[34] = tested on: SW480; assay: Cell cycle arrest in human SW480 cells assessed as accumulation at S phase at 0.35 uM incubated for 24 hrs by RNaseA/propidium iodide staining based flow cytometry (reference value: 16.7 %); format: functional

- IC50 [15]: 140 nM
Structure (SMILES): C[C@@H]1\C=C/C=C/C=C\C=C\C=C\C(=O)C2=C(O)C(=O)C[C@@]2(C)/C=C/C=C\C=C/C(=O)NC1
- Activity [1]: Active
- Activity [2]: 4.68%
- Activity [3]: Active
- Activity [4]: 12.31%
- Activity [5]: 67%
- Activity [6]: 21.81%
- Activity [7]: Active
- Activity [8]: Active
- Activity [9]: Active
- Activity [10]: 11.41%
- Activity [11]: 9.22%
- Activity [12]: Tde
- Activity [13]: Dde
- Activity [14]: Tde
- Activity [16]: Active
- Activity [17]: Active
- Activity [18]: Active
- Activity [19]: Tde
- Activity [20]: 44.79%
- Activity [21]: Active
- Activity [22]: Active
- Activity [23]: Active
- inhibition [24]: Dde
- Activity [25]: Active
- Activity [26]: Active
- Activity [27]: Active
- Activity [28]: Active
- Activity [29]: Active
- Activity [30]: Active
- Activity [31]: 22.13%
- Activity [32]: 54.89%
- Activity [33]: Active
- Activity [34]: 15.86%
